Measurements reported in patent publication US20220062228A1, “USE OF CARNOSOL FOR INCREASING MUSCLE PROTEIN SYNTHESIS” (Centre National De La Recherche Scientifique, priority 2018, published 2022).
Structures can show the parent of a compound that is named as a salt.

Tests used:
[1] = test system: human myotubes; assay: culture cell model of human skeletal muscle satellite cells: area of myotubes (troponin T immunofluorescence, Image J); type: cell-based; conditions: for hypertrophic activity on myotubes, carnosol compared with carnosic acid: 1 μg/ml and 5 μg/ml, FIG. 9; for hypertrophic activity on myotubes, comparison with antioxidant compounds: FIG. 8; for hypertrophic activity on myotubes (area of myotubes) / concentration from which hypertrophic activity is exhibited: myotubes from young human subjects; for hypertrophic activity on myotubes (area of myotubes): 5 μg/ml, FIG. 3; for concentration from which hypertrophic activity is exhibited: FIG. 4
Source text: (§1) In order to assay the hypertrophic effect on muscle of compounds from vegetal extracts, the inventors have designed a culture cell model of human skeletal muscle satellite cells. The skeletal muscle satellite cells are able to proliferate and to differentiate ex vivo. When cultured in a growth factors rich medium, the skeletal muscle satellite cells proliferate in the form of myoblasts. At confluence, the myoblasts morphologically differentiate by fusing thereby producing long multinucleated cells (myotubes or myofibers) which express muscular protein. Myotubes are able to respond to hypertrophic and atrophic signals by modulating the balance between the protein synthesis (hypertrophy) or the protein degradation (atrophy) (El Haddad M. et al., Cell Mol Life Sci. 2017 May; 74(10):1923-1936).
The recovered skeletal muscle satellite cells used in the culture cell model by the inventors were recovered from a muscular biopsy of young and elderly subjects.
The satellite cells can be easily recovered from a muscle biopsy and cultured ex vivo in dishes where they proliferate as myoblasts and differentiate into myotubes. The biopsy is treated according to an experimental protocol described and validated by us for human skeletal muscle from quadriceps (Kitzmann et al., 2006; El Haddad et al 2017). The biopsy is cut into a fragment of 1 mm^3 and placed in a culture dish treated with type 1 collagen. The explants are trapped inside in a thin layer of Matrigel (BD Matrigel Matrix, BD Biosciences) in 35 mm-collagen coated Petri dishes with growth media (DMEM/F12, supplemented with 10% fetal bovine serum, 0.1% Ultroser G, 1 ng/ml basic FGF, and 10 microg/mL gentamicin). After 6 to 8 days, when cells migrate out of the explants, they are enzymatically harvested using dispase (BD Biosciences) and subcultured in growth medium. Harvested cells are purified by immunomagnetic cell sorting using magnetic activated cell sorter (MACS) microbeads (MiltenyiBiotec) coupled to an antibody against CD56. Usually in protocols of muscle culture cells, muscle differentiation is induced by growing confluent myoblasts in differentiation medium depleted of growth factors. At confluence, myoblasts start to differentiate and differentiation can be evidenced 1) morphologically (after 2 to 4 days), as the fusion of myoblasts generates long giant multinucleated cells (named myotubes) and 2) biochemically, as myotubes express proteins required for muscle contraction. Differentiation is assessed by immunofluorescence using the antibodies against Troponin T and Myogenin, two markers of muscle differentiation. The differentiation status is also confirmed by precisely measuring the expression of three differentiation markers (Myogenin, Sarcomeric Actin and Caveolin by RT-qPCR). Expression of RPLP0 is also quantified as internal control.
Briefly, myoblasts are seeded at 10^5 cells/dish onto 35 mm collagen-coated dishes and cultured in growth medium (DMEM/F12, supplemented with 10% fetal bovine serum, 0.1% Ultroser G, 1 ng/ml basic FGF, and 10 microg/ml gentamicin). Myogenic differentiation of confluent cells was induced after 3 days by changing to DMEM containing 5% FBS (differentiation medium). Cells were kept in differentiation medium for 3 to 4 days.
Then the cells are fixed and the expression of troponin T (a protein of the cytoskeleton which is exclusively expressed by myotubes) is analysed by immuno-fluorescence. Then the area of myotubes is measured using the Image J software. If the area increases the compound has a hypertrophic activity and if the area decreases the compound has an atrophic activity.
The skeletal muscle satellite cells came from young people (aged under 30).

[2] = test system: NRF2 pathway; assay: induction of the NRF2 pathway (NRF2, HO-1) in skeletal muscle cells; type: cell-based; conditions: for NRF2 accumulation / full activation of NRF2 pathway by inducing HO-1: skeletal muscle, 6 μM
Source text: The regulation of Nrf2 signaling is believed to preserve redox homeostasis and protect the structure and function of skeletal muscle. Nrf2 is a transcription factor, inactivated by Keap-1 in the cytoplasm. Upon activation, Keap1 is degraded, and NRF2 mediates intracellular antioxidant response by binding to the antioxidant response element (ARE) in the promoter of its target genes and induces the expression of a set of antioxidant enzymes, called ‘phase 2 enzymes,’ including heme oxygenase-1 (HO-1). Recently it has been shown that Nrf2 deficiency caused accelerated aging and muscle loss during aging.
Since carnosic acid and carnosol are antioxidants molecules and can activate the NRF2 pathway in several type of cells, it was studied whether carnosic acid and carnosol are capable of inducing NRF2 pathway in skeletal muscle.
In order to know whether NRF2 pathway activation is sufficient to activate hypertrophy in skeletal muscle cells. An assay with DMF (dimethyl Fumarate) has been carried out. Given DMF is a NRF2 activator, if the NRF2 pathway activation is sufficient to activate hypertrophy in skeletal muscle cells then DMF should induce myotube hypertrophy.

[3] = test system: mTOR pathway; assay: western blot of signaling pathways controlling muscle hypertrophy in myotubes; type: cell-based, human; conditions: FIG. 14
Source text: Two main pathways control the regeneration of contractile proteins: • PI3K/Akt/mTOR which is the major pathway of muscle hypertrophy and • pathway of the transcription factors of FOXO family which controls the expression of the genes involved in the proteasome degradation systems and the autophagy (respectively atrogenes and genes of the autophagy).
At the molecular level, it has been established that the activation of the PI3K/Akt/mTOR pathway stimulates the protein synthesis through their anabolizing targets (mTOR, protein S6 kinase 1 (S6K) and the eIF4E-binding proteins (4E-BP) and blocks the ubiquitine E3 of the family of atrogenes MuRF1 and MAFbx mediated proteolysis pathway (FOXO) (Egerman and Glass, Signaling pathways controlling skeletal muscle mass. Crit Rev Biochem Mol Biol. 2014 January-February; 49(1):59-68).

[4] = test system: protein synthesis in myotubes; assay: SUnSET puromycin incorporation western blot (protein synthesis) in the culture cell model; type: cell-based, human; conditions: myotubes stimulated with carnosol, puromycin 30 minutes before recovery; FIG. 13
Experimental: The synthesis of muscle protein may be measured in vitro by the method disclosed in Schmidt et al., SUnSET, a nonradioactive method to monitor protein synthesis, Nat Methods. 2009 April; 6(4):275-7. Muscle cells were treated with puromycin, 30 minutes before recovering the protein from the cells. Then, a western blot is carried out with anti-puromycin antibodies in order to show the translation rate of the mRNA in the living cells.
The muscular hypertrophic activity of carnosol may result from a global increase of the synthesis of proteins. To study this hypothesis, the culture cell model disclosed above was stimulated with carnosol. Then, 30 minutes before recovering the protein from the cells, the cells were treated with puromycin. The puromycin is incorporated in the neo-synthetized proteins. Then, a western blot was carried out with anti-puromycin antibodies in order to show the translation rate of the mRNA in the living cells (Schmidt et al., SUnSET, a nonradioactive method to monitor protein synthesis. Nat Methods. 2009; 6:275-277) (see FIG. 13).

[5] = test system: myotube cells from elderly subject; assay: culture cell model with skeletal muscle satellite cells recovered from elderly subjects: area of myotubes; type: cell-based, human; conditions: elderly subjects 1 and 2; carnosol 2 μg/ml; FIG. 5
Source text: as §1, with “74(10):1923-1936). […]” for “74(10):1923-1936).”
The satellite cells can be easily recovered from a muscle biopsy and cultured ex vivo in dishes where they proliferate as myoblasts and differentiate into myotubes. […] Differentiation is assessed by immunofluorescence using the antibodies against Troponin T and Myogenin, two markers of muscle differentiation. […] Expression of RPLP0 is also quantified as internal control. […]
Then the cells are fixed and the expression of troponin T (a protein of the cytoskeleton which is exclusively expressed by myotubes) is analysed by immuno-fluorescence. Then the area of myotubes is measured using the Image J software. […]

[6] = test system: MURF1 protein; assay: western blot analysis on muscle extract for MURF1 protein; type: in vivo; conditions: adult C57 BL6 J mice, daily oral dose of 80 mg/Kg for 12 days; FIG. 7
Experimental: (§2) Hypertrophic Activity of Carnosol In Vivo To investigate whether carnosol can alter skeletal muscle physiology, adult mice (13 weeks old, C57 BL6 J) were treated for 12 days with a daily oral dose of 80 mg/Kg. […] The determination of the fibre areas (CSA) was made using the Myovision software.
Then, a western blot analysis on muscle extract was performed to determine the impact of a carnosol treatment on MURF1 protein.

[7] = test system: MuRF1; assay: western blot of MuRF1 in myotubes / skeletal muscle cells; type: cell-based, human
Source text: The muscle protein degradation may be measured by assaying the level of expression of an ubiquitin ligases such as muscle RING-finger protein-1 (MuRF1).

[8] = test system: gastrocnemius muscle; assay: fibre areas (CSA) of gastrocnemius muscle sections, anti-dystrophin staining, Myovision; type: in vivo; conditions: adult C57 BL6 J mice, daily oral dose of 80 mg/Kg for 12 days; FIG. 6
Experimental: as §2

Q: How did the myotube hypertrophy ([1]; human myotubes treated 48 hours, 25 μM and 100 μM, FIG. 11) turn out when `CC(C)(O)CC(=O)O` [β-hydroxy-β-methylbutyrate, reference compound] was run?
A: only carnosol treatment induced myotube hypertrophy

Q: `CC(C)c1cc2c(c(O)c1O)[C@@]1(C(=O)O)CCCC(C)(C)[C@@H]1CC2` [carnosic acid, reference compound] was tested. Which NRF2 accumulation [2] did it give?
A: both induce NRF2 accumulation

Q: And the “full activation of NRF2 pathway by inducing HO-1” value [2]?
A: only carnosol fully activates NRF2 pathway by inducing HO-1

Q: What about the “hypertrophic activity on myotubes, carnosol compared with carnosic acid” value [1] of the same molecule?
A: the hypertrophic activity of carnosol is significantly higher than the one of carnosic acid

Q: What about the “hypertrophic activity on myotubes, comparison with antioxidant compounds” value ([1]; 2 μg/ml) of the same molecule?
A: only carnosol has a significant hypertrophic activity

Q: Which “hypertrophic activity on myotubes, comparison with antioxidant compounds” value ([1]; 2 μg/ml) does the source give for `O=C(/C=C/c1ccc(O)c(O)c1)O[C@H](Cc1ccc(O)c(O)c1)C(=O)O` [rosmarinic acid, reference compound] here?
A: only carnosol has a significant hypertrophic activity

Q: `CC(C)C[C@H](N)C(=O)O` [leucine, reference compound] was tested. Which myotube hypertrophy ([1]; human myotubes treated 48 hours, 5 mM, FIG. 10) did it give?
A: only carnosol treatment induced myotube hypertrophy

Q: With `C[C@H]1[C@H](C)CC[C@]2(C(=O)O)CC[C@]3(C)C(=CC[C@@H]4[C@@]5(C)CC[C@H](O)C(C)(C)[C@@H]5CC[C@]43C)[C@H]12` [ursolic acid, reference compound] as the molecule, how does the “hypertrophic activity on myotubes, comparison with antioxidant compounds” value ([1]; 2 μg/ml) read?
A: only carnosol has a significant hypertrophic activity

Q: For vitamin D [reference compound], which myotube hypertrophy ([1]; human myotubes treated 48 hours, 10^−7M, FIG. 12) is on record?
A: Only carnosol induced myotube hypertrophy

Q: For `O=C1O[C@H]([C@@H](O)CO)C(O)=C1O` [vitamin C, ascorbic acid, reference compound], which “hypertrophic activity on myotubes, comparison with antioxidant compounds” value ([1]; 50 μg/ml) is on record?
A: only carnosol has a significant hypertrophic activity

Q: `CC(C)c1cc2c(c(O)c1O)[C@@]13CCCC(C)(C)[C@@H]1C[C@@H]2OC3=O` [carnosol, Carnosol] was tested. Which “phosphorylation rate of 4EBP1 (p-4EBP1/4EPB1)” value [3] did it give?
A: increasing the phosphorylation rate

Q: And the “phosphorylation rate of P70 S6 kinase (p-S6K/S6K)” value [3]?
A: increasing the phosphorylation rate

Q: What about the “phosphorylation rate of PS6 (p-S6/S6)” value [3] of the same molecule?
A: increasing the phosphorylation rate

Q: What about the “synthesis of protein in muscle cells (puromycin incorporation)” value [4] of the same molecule?
A: stimulates the synthesis of protein in muscle cells

Q: What about the “hypertrophic activity on myotube cells of elderly subjects” value [5] of the same molecule?
A: has also a hypertrophic activity

Q: What about the “MURF1 protein level in gastrocnemius” value [6] of the same molecule?
A: down-regulates MURF1 protein level

Q: What about the “MuRF1 expression (degradation of proteins)” value ([7]; myotubes, western blot, FIG. 14) of the same molecule?
A: inhibits strongly the MuRF1 expression

Q: What about the “dose from which the NRF2 pathway is induced” value ([2]; skeletal muscle cells) of the same molecule?
A: ≥ 3 µM

Q: And the NRF2 accumulation [2]?
A: both induce NRF2 accumulation

Q: And the “full activation of NRF2 pathway by inducing HO-1” value [2]?
A: only carnosol fully activates NRF2 pathway by inducing HO-1

Q: What about the “diameter of the fibers (fibre area, CSA) of the gastrocnemius” value [8] of the same molecule?
A: significantly increases the diameter of the fibers

Q: What about the “hypertrophic activity on myotubes, carnosol compared with carnosic acid” value [1] of the same molecule?
A: the hypertrophic activity of carnosol is significantly higher than the one of carnosic acid

Q: What about the “hypertrophic activity on myotubes, comparison with antioxidant compounds” value ([1]; 2 μg/ml) of the same molecule?
A: only carnosol has a significant hypertrophic activity

Q: What about the myotube hypertrophy ([1]; human myotubes treated 48 hours, 1 μg/ml, FIGS. 10-12) of the same molecule?
A: only carnosol treatment induced myotube hypertrophy

Q: What about the “hypertrophic activity on myotubes (area of myotubes)” value ([1]; listed as commercially available carnosol) of the same molecule?
A: same hypertrophic activity as the fraction C

Q: And the “hypertrophic activity on myotubes (area of myotubes)” value ([1]; listed as fraction C)?
A: active compound was isolated in the fraction C

Q: And the “concentration from which hypertrophic activity is exhibited” value ([1]; conversion of 0.5 μg/ml)?
A: 1 to 2 µM

Q: And the “concentration from which hypertrophic activity is exhibited” value ([1]; tested 0.25-5 μg/ml)?
A: ≥ 0.5 µg/mL

Q: With `COC(=O)/C=C/C(=O)OC` [DMF, dimethyl Fumarate, reference compound] as the molecule, how does the “repression of MURF1 protein” value ([7]; skeletal muscle cells, DMF treatment versus carnosol treatment) read?
A: does not induce repression of MURF1 protein

Q: What about the “dose from which the NRF2 pathway is induced” value ([2]; skeletal muscle cells) of the same molecule?
A: > 20 µM

Q: And the “induction of the NRF2 pathway (NRF2 and HO-1)” value ([2]; skeletal muscle cells)?
A: induces the NRF2 pathway

Q: What about the myotube hypertrophy ([1]; 50 μM, FIG. 15) of the same molecule?
A: does not induce repression of MURF1 protein and myotube hypertrophy
